Converted amounts (≈) assume the structure as drawn. Where two headings read alike, the source gives them in different places.
Columns and labels:
gram negative bacteria = experiment: In vitro anti-bacterial activity assay (broth dilution MIC), gram negative bacteria; assay type: cell-based, E. coli
In short: (§1)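 Broth dilution MIC following CLSI M7-A2: compounds serially diluted, log-phase test strains added to final ~5×10^5 CFU/ml, incubated ~18 hours at 35° C in ambient air. Plates read on microplate reader or visually; MIC is lowest concentration inhibiting growth.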

[1] = Mammalian cytotoxicity assay (resazurin), COS-1 cells; assay type: cell-based; conditions: African green monkey, read-out: Cytotox. COS-1
In short: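 Cells seeded overnight at 37° C., 5% CO2, then exposed to serial compound dilutions for 24 hours. Medium replaced with resazurin (0.042 mg/ml in PBS with Ca and Mg) for 2 hours plus 30 minutes dark at room temperature; fluorescence read at ex 535/em 590 nm, IC50 taken as 50% growth inhibition.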

in vitro = assay type: cell-based; conditions: Chinese hamster, Cytotox. CHO-K1
gram positive bacteria = experiment: In vitro anti-bacterial activity assay (broth dilution MIC), gram positive bacteria; assay type: cell-based, S. aureus; conditions: 18 h
In short: as §1

3T3 fibroblast cells = experiment: In vitro phototoxicity assay (neutral red; UV light-treated vs dark control plates); assay type: cell-based; conditions: for Photo Toxicity UV Tox50: UV light 50 minutes; for Photo Toxicity Dark Tox50: dark control plate
In short: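 Neutral red viability readout (A535 after EtOH/acetic acid extraction) compares paired plates: one exposed 50 min to UV at 1.6–1.8 mW/cm^2, one held in darkness, both dosed with compound in HBSS and recovered overnight. 3T3 fibroblast cells used; phototoxicity taken as the difference.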

[2] = Escherichia coli, 18 h, E. coli D1 209, read-out: Median MIC's G− E. coli D1 209
[3] = Escherichia coli, 18 h, E. coli MG 1655, read-out: Median MIC's G− E. coli MG 1655
[4] = Escherichia coli, ATCC25922, 18 h, E. coli ATCC 25922, read-out: Median MIC's G− E. coli ATCC 25922
[5] = Pseudomonas aeruginosa, 18 h, P. aeruginosa K201 PAO6609, read-out: Median MIC's G− P. aeruginosa K201 PAO6609
[6] = Staphylococcus aureus, S. aureus MRSA5, read-out: Median MIC's G+ S. aureus MRSA5
[7] = Staphylococcus aureus, S. aureus RN450, read-out: Median MIC's G+ S. aureus RN450
[8] = Streptococcus pneumoniae, S. pneumoniae 157E-Strep, read-out: Median MIC's G+ S. pneumoniae 157E-Strep

SMILES | MIC (gram negative bacteria; [2]) [µg/mL] | MIC (gram negative bacteria; [3]) [µg/mL] | MIC (gram negative bacteria; [4]) [µg/mL] | MIC (gram negative bacteria; [5]) [µg/mL] | IC50 at 24 h [1] [µM] | IC50 at 24 h (in vitro) [µM] | MIC (gram positive bacteria; [6]) [µg/mL] | MIC (gram positive bacteria; [7]) [µg/mL] | MIC (gram positive bacteria; [8]) [µg/mL] | Photo Toxicity UV Tox50 (3T3 fibroblast cells) [µM] | Photo Toxicity Dark Tox50 (3T3 fibroblast cells) [µM]
CN(C)[C@@H]1C(O)=C(C(N)=O)C(=O)[C@@]2(O)C(O)=C3C(=O)c4c(O)ccc(C(=O)CNCc5cccn5C)c4C[C@H]3C[C@@H]12 [CE] | 64 (≈ 113 µM) | 4 (≈ 7.08 µM) | 4 (≈ 7.08 µM) | 64 (≈ 113 µM) | > 41.4 | > 41.4 | 4 (≈ 7.08 µM) | 0.25 (≈ 0.443 µM) | 0.5 (≈ 0.886 µM) | >133.53 | >133.53
CN(C)[C@@H]1C(O)=C(C(N)=O)C(=O)[C@@]2(O)C(O)=C3C(=O)c4c(O)ccc(C(=O)Cn5ccnc5)c4C[C@H]3C[C@@H]12 [CF] | 64 (≈ 122 µM) | 64 (≈ 122 µM) | 64 (≈ 122 µM) | 64 (≈ 122 µM) | > 49.9 | > 49.9 | 64 (≈ 122 µM) | 4 (≈ 7.66 µM) | 4 (≈ 7.66 µM) | >161.01 | >161.01
CC(=O)NCCC(=O)c1ccc(O)c2c1C[C@H]1C[C@H]3[C@H](N(C)C)C(O)=C(C(N)=O)C(=O)[C@@]3(O)C(O)=C1C2=O [CI] | 64 (≈ 121 µM) | 64 (≈ 121 µM) | 64 (≈ 121 µM) | 64 (≈ 121 µM) | > 160 | > 160 | 64 (≈ 121 µM) | 2 (≈ 3.79 µM) | 2 (≈ 3.79 µM) | >159.57 | >159.57
CN(C)CC/C(=N\OC(C)(C)C)c1ccc(O)c2c1C[C@H]1C[C@H]3[C@H](N(C)C)C(O)=C(C(N)=O)C(=O)[C@@]3(O)C(O)=C1C2=O [CJ] | 1 (≈ 1.71 µM) | 2 (≈ 3.42 µM) | 0.5 (≈ 0.855 µM) | 64 (≈ 109 µM) | 82.2 | 34.6 | 2 (≈ 3.42 µM) | 0.06 (≈ 0.103 µM) | 0.06 (≈ 0.103 µM) | 62.89 | >136.86
CN(C)[C@@H]1C(O)=C(C(N)=O)C(=O)[C@@]2(O)C(O)=C3C(=O)c4c(O)ccc(-c5cccc(C(=O)NCCO)c5)c4C[C@H]3C[C@@H]12 [CK] | 64 (≈ 111 µM) | 64 (≈ 111 µM) | 64 (≈ 111 µM) | 64 (≈ 111 µM) | > 14.7 | > 14.7 | 8 (≈ 13.9 µM) | 0.125 (≈ 0.216 µM) | 0.125 (≈ 0.216 µM) | >146.56 | >146.58
CN(C)CCCCNC(=O)c1cccc(-c2ccc(O)c3c2C[C@H]2C[C@H]4[C@H](N(C)C)C(O)=C(C(N)=O)C(=O)[C@@]4(O)C(O)=C2C3=O)c1 [CL] | 64 (≈ 101 µM) | 64 (≈ 101 µM) | 64 (≈ 101 µM) | 64 (≈ 101 µM) | > 41.7 | > 41.7 | 64 (≈ 101 µM) | 4 (≈ 6.32 µM) | 4 (≈ 6.32 µM) | >134.63 | >134.63
CN(C)[C@@H]1C(O)=C(C(N)=O)C(=O)[C@@]2(O)C(O)=C3C(=O)c4c(O)ccc(-c5cccc(CCCO)c5)c4C[C@H]3C[C@@H]12 [CM] | 64 (≈ 117 µM) | 64 (≈ 117 µM) | 64 (≈ 117 µM) | 64 (≈ 117 µM) | 15.1 | 14.1 | 0.5 (≈ 0.911 µM) | 0.0625 (≈ 0.114 µM) | 0.06 (≈ 0.109 µM) | >167.5 | >167.5
CN(C)CCCCNCc1ccc(O)c2c1C[C@H]1C[C@H]3[C@H](N(C)C)C(O)=C(C(N)=O)C(=O)[C@@]3(O)C(O)=C1C2=O [CN, (4S,4aS,5aR,12aS)-4-Dimethylamino-7-[(4-dimethylamino-butylamino)-methyl]-3,10,12,12a-tetrahydroxy-1,11-dioxo-1,4,4a,5,5a,6,11,12a-octahydro-naphthacene-2-carboxylic acid amide] | 64 (≈ 118 µM) | 32 (≈ 59 µM) | 32 (≈ 59 µM) | 64 (≈ 118 µM) | > 138 | > 138 | 64 (≈ 118 µM) | 16 (≈ 29.5 µM) | 32 (≈ 59 µM) | >138.03 | >138.03
CN(C)[C@@H]1C(O)=C(C(N)=O)C(=O)[C@@]2(O)C(O)=C3C(=O)c4c(O)ccc(-c5cccc(/C=C/C#N)c5)c4C[C@H]3C[C@@H]12 [CO] | 64 (≈ 118 µM) | 64 (≈ 118 µM) | 64 (≈ 118 µM) | 64 (≈ 118 µM) | 7.77 | 9.41 | 0.5 (≈ 0.923 µM) | 0.0625 (≈ 0.115 µM) | 0.06 (≈ 0.111 µM) | >164.35 | >164.35
